Data reported in US20210386756A1, “IMPROVEMENTS FOR PERFORMING AND FACILITATING THE RECOVERY AFTER HEMATOPOIETIC STEM CELL TRANSPLANTATION” (Centro de Investigaciones Energéticas, Medioambientales y …, priority 2018, published 2021).

Key:
[1] = tested on: hCD34+ hematopoietic progenitors; test: In vitro toxicity of natural estrogens for hematopoietic progenitors (hCD34+ culture, FACS subsets); type: cell-based, human; settings: for toxicity for hematopoietic progenitor subpopulations: 10 nM to 500 μM, in vitro; for % CD34+/CD38− / % HSC / % MLP / % MPP: four days culture
Description: FIG. 9 relates the effect of different concentration of E1, E2, E3 and E4 in human hematopoietic progenitors. Human hematopoietic progenitors were culture in phenol red free media supplemented with 100 ng/mL SCF, 100 ng/ml FLT3L and 100 ng/ml TPO and different concentration of E1, E2, E3 and E4 (from 10 nM to 500 μM). FIG. 9A represents the fold increase of the number of hematopoietic cells after four days in culture. FIG. 9B indicates the total number of primitive hematopoietic progenitors (CD34^+/CD38^−) present in the culture, extrapolated from number of cells and the frequency of this population analyzed by FACS. […] Grey dashed lines point the value of control group, and red dashed lines indicate the initial values at day 0. (Kruskal-Wallis test; P<0.05, data from four independent experiments).
To assess the toxicity of the natural estrogens (E1, E2, E3 and E4) for hematopoietic progenitors, in vitro studies were performed. 5×10^4 hCD34^+ were cultured in a phenol red-free media, X-Vivo 20 (Lonza), in presence of 100 ng/ml SCF, 100 ng/ml FLT3L, 100 ng/ml TPO, 0.5% PS, 1% Glutamax (Thermofisher) and different concentrations of E1, E2, E3 or E4 (from 10 nM to 500 μM). Cell proliferation and immunophenotype of different hematopoietic subsets (CD34^+/CD38^−, HSC [CD34^+/CD38^−/CD45RA^−/CD90^+], Multipotent Progenitors [MPP, CD34^+/CD38^−/CD45RA^−/CD90^−], Multipotent Lymphoid Progenitors [MLP, CD34^+/CD38^−/CD45RA^+] were evaluated at day 0 and four days after culture.

human cord blood CD34+ [2] = test: Human engraftment in female NSG mice transplanted with a limited CD34+ cell dose (5×10^3); type: in vivo, mouse; settings: low dose 5×10^3 hCD34+, mean +/− SEM
From the text: FIG. 7A indicates human hematopoietic reconstitution after four months. […] However, in spite of this presence of endogenous estrogens, the human engraftment in female recipients was increased after E2 and more importantly after E4 treatment. FIG. 7B relates the presence of primitive hematopoietic progenitors was higher in the female mice treated with estrogens, which indicated the quality of the reconstitution. (Kruskal-Wallis test; P<0.05, 4 mice per group). […] Three-four months later, the animals were sacrificed and the human hematopoietic engraftment was analyzed by FACS. Human hematopoietic population was identified as the cells positive for hCD45-APC-Cy7 (Biolegend) and negative for mouse CD45.1-PE (Biolegend). To assess whether estrogen can improve hematopoietic reconstitution in female recipients, female NSG were irradiated and transplanted by a low doses of human cord blood CD34^+ (5×10^3 hCD34^+). The human engraftment was analyzed as described in Example 1. […] However, in spite of this presence of endogenous estrogens, the human engraftment in female recipients was increased after E2 and more importantly after E4 treatment.

[3] = tested on: human cord-blood CD34+ cells; test: Human hematopoietic engraftment in male NSG mice transplanted with 5×10^4 human cord-blood CD34+ cells; type: in vivo, mouse; settings: male NSG, 5×10^4 CD34+, 2 μg daily for four days, mean +/− SEM
Description: Three-four months later, the animals were sacrificed and the human hematopoietic engraftment was analyzed by FACS. Human hematopoietic population was identified as the cells positive for hCD45-APC-Cy7 (Biolegend) and negative for mouse CD45.1-PE (Biolegend). In order to further examine the effect of the estrogen in HSCT, hematopoietic progenitors (hCD34+) and hematopoietic stem cells (hCD34+/hCD38−) were analyzed by FACS inside of the human population in the treated NSG described in Example 1.

[4] = tested on: human hematopoietic progenitors (CB-CD34+); test: LTC-IC human bone marrow-like co-culture (hMSC + hCD34+) and CFU assay; type: cell-based
Description: LTC-IC was established through the co-culture of human bone marrow Mesenchymal Stromal Cells (BM-MSC) and human progenitors (CB-CD34+) to research the positive effects of the estrogens in a human context, such as an in vitro human bone marrow model. LTC-ICs were treated with vehicle or 100 µM of E2 or E4 for a week. […] Cells were plated in methycellulose media with specific hematopoietic cytokines to evaluate the hematopoietic progenitor content. After 14 days, colony forming units (CFU) were counted. Data were normalized to control groups. […] 1×10^5 human mesenchymal stromal cells (hMSC) were seeded in a p6 well and irradiated with 30 Gy next day. The following day, 5×10^4 hCD34^+ were added to the hMSC in LTC-IC media: 75% α-MEM without Phenol Red (Life Technologies), 12.5% Hyclone FBS (GE Healthcare), HS (Life Technologies), β-mercaptoethanol (Life Technologies), 0.5% PS and 1×10^−6 M Hydrocortisone (Sigma-Aldrich). 100 μM of estrogens, dissolved in ethanol, was added to the co-culture for a week, and then the cells were collected and the amount of human hematopoietic progenitors were evaluated in semisolid media supplement with specific hematopoietic cytokines (H4535, StemCell Technologies) plus 8 U/ml hEPO. After fourteen days, colony-forming units (CFU) were evaluated and normalized to the control: […]

human cord blood CD34+ [5] = test: Human engraftment in male NSG mice transplanted with a limited CD34+ cell dose (5×10^3); type: in vivo, mouse
Description: FIG. 6A indicates the level of human engraftment, which was raised by E4 administration. […] (Kruskal-Wallis test; P=0.1150, 7-10 mice per group). […] Three-four months later, the animals were sacrificed and the human hematopoietic engraftment was analyzed by FACS. Human hematopoietic population was identified as the cells positive for hCD45-APC-Cy7 (Biolegend) and negative for mouse CD45.1-PE (Biolegend). To determine whether estrogen can improve hematopoietic reconstitution of low number of hematopoietic progenitors, male NSG were irradiated and transplanted with low doses of human cord blood CD34+ (5×103 hCD34+). The human engraftment was analyzed as described in Example 1.

[6] = 100 μM for a week, versus vehicle

Row | SMILES | toxicity for hematopoietic progenitor subpopulations [1] | % CD34+/CD38− ([1]; 10 nM) | % HSC ([1]; 10 nM) | % MLP ([1]; 10 nM) | % MPP ([1]; 10 nM) | % CD34+/CD38− ([1]; 100 nM) | % HSC ([1]; 100 nM) | % MLP ([1]; 100 nM) | % MPP ([1]; 100 nM) | % CD34+/CD38− ([1]; 1 μM) | % HSC ([1]; 1 μM) | % MLP ([1]; 1 μM) | % MPP ([1]; 1 μM) | % CD34+/CD38− ([1]; 10 μM) | % HSC ([1]; 10 μM) | % MLP ([1]; 10 μM) | % MPP ([1]; 10 μM) | % HSC ([1]; 100 μM) | % MLP ([1]; 100 μM) | % MPP ([1]; 100 μM) | also measured
1 | C[C@]12CC[C@@H]3c4ccc(O)cc4CC[C@H]3[C@@H]1CCC2=O [E1, estrone] | more toxic | 12.32 ± 2.72% | 2.19 ± 0.65% | 3.32 ± 1.90% | 4.69 ± 0.88% | 12.91 ± 5.83% | 2.12 ± 0.29% | 4.12 ± 3.56% | 4.37 ± 1.47% | 10.11 ± 2.31% | 2.31 ± 0.45% | 1.80 ± 0.92% | 4.48 ± 1.50% | 10.54 ± 3.34% | 2.25 ± 0.41% | 2.92 ± 2.12% | 3.66 ± 0.89% | 0.67% | 4.46% | 3.86% | % CD34+/CD38− ([1]; 100 μM): 11.02%; % CD34+/CD38− ([1]; 500 μM): 14.80 ± 4.62%; % HSC ([1]; 500 μM): 1.75 ± 0.51%; % MLP ([1]; 500 μM): 4.64 ± 3.09%; % MPP ([1]; 500 μM): 5.87 ± 1.34%
2 | C[C@]12CC[C@@H]3c4ccc(O)cc4CC[C@H]3[C@@H]1CC[C@@H]2O [E2, 17β-estradiol] | more toxic | 11.99 ± 0.99% | 1.52 ± 0.24% | 4.23 ± 0.82% | 4.33 ± 0.33% | 10.74 ± 0.29% | 4.25 ± 2.95% | 3.72 ± 0.31% | 3.20 ± 0.76% | 13.43 ± 0.60% | 1.59 ± 0.15% | 3.98 ± 0.14% | 5.62 ± 0.74% | 17.52 ± 2.19% | 1.86 ± 0.12% | 6.79 ± 1.96% | 4.97 ± 0.23% | 4.50 ± 1.91% | 1.76 ± 0.66% | 7.08 ± 1.80% | Percentage of hematopoietic stem cells (hCD34+/hCD38−) in the human hematopoietic population (human cord blood CD34+ [2]): 0.34 +/− 0.12 (n = 3) %; Percentage of human hematopoietic reconstitution (human cord blood CD34+ [2]): 23.90 +/− 4.65 (n = 3) %; Percentage in the human hematopoietic population: hematopoietic stem cells ([3]; hCD34+/hCD38−): 0.52 +/− 0.07 (n = 13) %; Percentage in the human hematopoietic population: hematopoietic progenitors ([3]; hCD34+): 9.35 +/− 0.86 (n = 13) %; Percentage of human hematopoietic reconstitution ([3]; three-four months later): 46.05 +/− 5.98 (n = 13) %; Percentage in the human hematopoietic population: Lymphoid ([3]; CD19+): 82.26 +/− 2.14 (n = 9) %; Percentage in the human hematopoietic population: Myeloid ([3]; CD33+): 8.42 +/− 0.88 (n = 9) %; % CD34+/CD38− ([1]; 100 μM): 14.52 ± 2.88%; % CD34+/CD38− ([1]; 500 μM): 11.93 ± 2.95%; % HSC ([1]; 500 μM): 3.97 ± 2.39%; % MLP ([1]; 500 μM): 1.01 ± 0.24%; % MPP ([1]; 500 μM): 6.96 ± 2.54%; Normalized human CFU ([4]; 100 μM estrogen for a week, CFU after fourteen days, normalized to control, mean +/− SEM): 1.50 +/− 0.21 (n = 6); number of hematopoietic cells in LTC-IC [4, 6]: reduced; total number of primitive hematopoietic progenitors in LTC-IC [4, 6]: did not change; proportion of engrafted mice (human engraftment above 0.1%) (human cord blood CD34+ [5]; 5×10^3 CB-CD34+): 70%; change of the proportion of engrafted mice versus vehicle (human cord blood CD34+ [5]; limited HPC dose, engraftment above 0.1%): almost tripled; Percentage of human hematopoietic reconstitution (human cord blood CD34+ [5]; low dose 5×103 hCD34+, mean +/− SEM): 2.12 +/− 1.05 (n = 10) %
3 | C[C@]12CC[C@@H]3c4ccc(O)cc4CC[C@H]3[C@@H]1C[C@@H](O)[C@@H]2O [E3, estriol] | more toxic | 14.77 ± 0.41% | 1.87 ± 0.09% | 4.94 ± 0.70% | 5.75 ± 0.21% | 18.28 ± 1.30% | 2.28 ± 0.03% | 6.46 ± 0.83% | 7.25 ± 0.46% | 14.96 ± 0.57% | 4.94 ± 2.86% | 2.72 ± 2.38% | 5.57 ± 0.12% | 15.89 ± 0.62% | 1.95 ± 0.13% | 5.24 ± 0.65% | 6.18 ± 0.47% | 4.13% | 0.15% | 6.44% | % CD34+/CD38− ([1]; 500 μM): 17.92 ± 2.56%; % HSC ([1]; 500 μM): 3.70 ± 1.51%; % MLP ([1]; 500 μM): 4.73 ± 1.60%; % MPP ([1]; 500 μM): 7.61 ± 2.91%
